Laboratory results published in US20250313575A1, “MACROCYCLES AS LRRK2 INHIBITORS, PHARMACEUTICAL COMPOSITIONS, AND USES THEREOF” (Merck Sharp & Dohme LLC, priority 2022, published 2025).

What follows are compounds tested against GST-tagged truncated human mutant G2019S LRRK2 (Homo sapiens (Human), UniProt Q5S007, G2019S) (assay: LRRK2 G2019S Km ATP LanthaScreen assay). Conditions: G2019S LRRK2, 134 μM ATP (Km ATP), LRRKtide substrate.
Type: biochemical
Procedure: Unless otherwise noted, all reactions are magnetically allowed to stir, diethyl ether used in the experiments described below is Fisher ACS certified material stabilized with BHT, and “concentrated” and/or “solvent removed under reduced pressure” means evaporating the solvent from a solution or mixture using a rotary evaporator or vacuum pump. Unless otherwise noted, flash chromatography is carried out on a Teledyne Isco (Lincoln, NE), Analogix (Burlington, WI), or Biotage (Stockholm, SWE) automated chromatography system using a commercially available cartridge as the column. Columns may be purchased from Teledyne Isco, Analogix, Biotage, Varian (Palo Alto, CA), or Supelco (Bellefonte, PA) and are usually filled with silica gel as the stationary phase. Reverse phase prep-HPLC conditions, where used, can be found at the end of each experimental section. Aqueous solutions were concentrated on a Genevac (Ipswich, ENG) or by freeze-drying/lyophilization. Unless otherwise noted, all LRRK2 pIC50 data presented in tables refers to the LRRK2 G2019S Km ATP LanthaScreen™ assay (Life Technologies Corp., Carlsbad, CA) that is described in the Biological Assay section.
The LRRK2 kinase activity reported herein as IC50 values was determined with LanthaScreen™ technology from Life Technologies Corporation (Carlsbad, CA) using GST-tagged truncated human mutant G2019S LRRK2 in the presence of the fluorescein-labeled peptide substrate LRRKtide, also from Life Technologies. The data presented for the […] depending on the specific conditions and reagents used. Assays were performed in the presence of 134 μM ATP (Km ATP). Upon completion, the assay was stopped and phosphorylated substrate detected with a terbium (Tb)-labeled anti-pERM antibody (cat. no. PV4898). The compound dose response was prepared by diluting a 10 mM stock of compound to a maximum concentration of 9.99 μM in 100% dimethylsulfoxide followed by custom fold serial dilution in dimethylsulfoxide nine times. Twenty nanoliters of each dilution was spotted via a Labcyte Echo onto a 384-well black-sided plate (Corning 3575) followed by 15 μl of a 1.25 nM enzyme solution in 1× assay buffer (50 mM Tris pH 8.5, 10 mM MgCl2, 0.01% Brij-35, 1 mM EGTA, 2 mM dithiothreitol, 0.05 mM sodium orthovanadate). Following a 15-minute incubation at room temperature, the kinase reaction was started with the addition of 5 μl of 400 nM fluorescein-labeled LRRKtide peptide substrate and 134 μM ATP solution in 1× assay buffer. The reaction was allowed to progress at ambient temperature for 90 minutes. The reaction was then stopped by the addition of 20 μl of TR-FRET Dilution Buffer (Life Technologies, Carlsbad, CA) containing 2 nM Tb-labeled anti-phospho LRRKtide antibody and 10 mM EDTA (Life Technologies, Carlsbad, CA). After an incubation of 1 h at room temperature, the plate was read on an EnVision multimode plate reader (Perkin Elmer, Waltham, MA) with an excitation wavelength of 337 nm (Laser) and a reading emission at both 520 and 495 nm. Compound IC50s were interpolated from nonlinear regression best fits of the log of the final compound concentration, plotted as a function of the 520/495-nm emission ratio using Activity base. Abase uses a 4 parameter (4P) logistic fit based on the Levenberg-Marquardt algorithm.

GST-tagged truncated human mutant G2019S LRRK2, sequence (Q5S007 970-2527 G2019S): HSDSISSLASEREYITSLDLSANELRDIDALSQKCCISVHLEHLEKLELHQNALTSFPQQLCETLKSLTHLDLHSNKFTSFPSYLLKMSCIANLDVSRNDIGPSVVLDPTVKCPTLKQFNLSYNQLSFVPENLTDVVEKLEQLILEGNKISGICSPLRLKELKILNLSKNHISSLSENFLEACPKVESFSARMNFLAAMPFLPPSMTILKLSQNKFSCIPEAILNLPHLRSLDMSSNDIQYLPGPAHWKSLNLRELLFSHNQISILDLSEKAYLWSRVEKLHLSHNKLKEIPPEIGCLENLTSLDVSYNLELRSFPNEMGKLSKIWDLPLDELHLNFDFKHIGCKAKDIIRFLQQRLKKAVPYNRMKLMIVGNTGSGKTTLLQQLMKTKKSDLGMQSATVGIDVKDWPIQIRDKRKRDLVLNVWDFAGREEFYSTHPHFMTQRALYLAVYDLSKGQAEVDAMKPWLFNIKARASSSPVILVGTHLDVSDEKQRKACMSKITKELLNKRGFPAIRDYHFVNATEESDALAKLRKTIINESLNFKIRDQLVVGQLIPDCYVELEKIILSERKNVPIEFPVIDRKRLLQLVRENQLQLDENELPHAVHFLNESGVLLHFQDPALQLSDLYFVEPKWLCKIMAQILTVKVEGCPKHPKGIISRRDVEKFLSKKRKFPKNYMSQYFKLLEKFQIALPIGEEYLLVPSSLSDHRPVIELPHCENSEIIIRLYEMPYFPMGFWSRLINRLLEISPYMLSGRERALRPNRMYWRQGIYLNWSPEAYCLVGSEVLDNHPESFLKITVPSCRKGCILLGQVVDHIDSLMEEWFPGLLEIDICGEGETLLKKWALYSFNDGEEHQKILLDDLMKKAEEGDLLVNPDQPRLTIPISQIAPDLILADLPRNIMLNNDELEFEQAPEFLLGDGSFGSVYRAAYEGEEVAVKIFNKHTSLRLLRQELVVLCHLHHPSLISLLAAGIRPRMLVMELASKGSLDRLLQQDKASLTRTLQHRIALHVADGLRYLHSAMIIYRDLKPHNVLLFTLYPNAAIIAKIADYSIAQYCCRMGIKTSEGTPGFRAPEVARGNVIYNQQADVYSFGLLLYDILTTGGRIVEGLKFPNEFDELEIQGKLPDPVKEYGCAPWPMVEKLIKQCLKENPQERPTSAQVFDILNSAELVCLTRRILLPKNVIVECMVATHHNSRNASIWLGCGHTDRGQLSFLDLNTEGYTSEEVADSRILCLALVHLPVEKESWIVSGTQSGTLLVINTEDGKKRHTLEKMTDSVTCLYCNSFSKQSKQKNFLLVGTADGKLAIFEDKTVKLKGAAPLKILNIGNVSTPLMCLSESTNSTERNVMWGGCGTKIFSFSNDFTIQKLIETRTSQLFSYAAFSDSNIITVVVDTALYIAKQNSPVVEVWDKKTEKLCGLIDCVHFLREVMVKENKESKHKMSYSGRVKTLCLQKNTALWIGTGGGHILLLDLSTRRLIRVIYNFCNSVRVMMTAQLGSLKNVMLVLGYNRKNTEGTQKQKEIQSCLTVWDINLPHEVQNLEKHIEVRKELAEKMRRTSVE

SMILES	LRRK2 pIC50
COC1CC(n2nc(C)c3c2Nc2ncc(C(F)(F)F)c(n2)N[C@@H]2CC[C@H]2CO3)C1 (stereo partly drawn) [Ex-2.78, (10aR,12aR)-3-(3-methoxycyclobutyl)-1-methyl-8-(trifluoromethyl)-3,4,10,10a,11,12,12a,13-octahydro-5,9-(azeno)cyclobuta[k]pyrazolo[4,3-b][1]oxa[4,6,10]triazacyclotridecine]	>10.09
Cc1nn(C2CCC2)c2c1OC1COC[C@H]1CNc1nc(ncc1C(F)(F)F)N2 (single isomer, unassigned) [Ex-2.81, (11aR,14aS) or (11aS,14aR)-3-cyclobutyl-1-methyl-8-(trifluoromethyl)-3,4,10,11,11a,12,14,14a-octahydro-5,9-(azeno)furo[3,4-1]pyrazolo[4,3-b][1]oxa[4,6,10]triazacyclotridecine]	5.99
CCOC(=O)[C@@H]1C[C@@H]1c1nn(C(C)C)c2c1OC[C@@H]1COC[C@H]1Nc1nc(ncc1C(F)(F)F)N2 [Ex-2.46, ethyl (1R,2S)- or ethyl (1S,2R)-2-((10aS,13aS)-3-isopropyl-8-(trifluoromethyl)-3,4,10a,11,13a,14-hexahydro-10H,13H-5,9-(azeno)furo[3,4-k]pyrazolo[4,3-b][1]oxa[4,6,10]triazacyclotridecin-1-yl)cyclopropane-1-carboxylate]	6.66
Cn1nc(C2CC2)c2c1OCC1CCC1Nc1nc(ncc1C(F)(F)F)N2 [Ex-1.8, (10aR,12aS)- or (10aS,12aR)-3-cyclopropyl-1-methyl-8-(trifluoromethyl)-1,4,10,10a,11,12,12a,13-octahydro-5,9-(azeno)cyclobuta[k]pyrazolo-[3,4-b][1]oxa[4,6,10]triazacyclo-tridecine]	5.94
Cc1nn(C(C)(C)C#N)c2c1Nc1ncc(C(F)(F)F)c(n1)N[C@@H]1CCC1CO2 (stereo partly drawn) [Ex-1.1, 2-Methyl-2-((10aR,12aR)-3-methyl-8-(trifluoromethyl)-10,10a,11,12,12a,13-hexahydro-5,9-(azeno)cyclobuta[k]pyrazolo[3,4-b][1]oxa[4,6,10]triazacyclotridecin-1 (4H)-yl)propanenitrile]	>10.09
Cc1nn(C)c2c1OCC1(CC1)C(C)Nc1nc(ncc1C(F)(F)F)N2 (single isomer, unassigned) [Ex-2.15, (R)- or (S)-1′,3′,7′-trimethyl-10′-(trifluoromethyl)-1′,7′,8′,14′-tetrahydro-5′H-spiro[cyclopropane-1,6′-[9,13](azeno)pyrazolo[4,3-b][1]oxa[4,6,10]triazacyclotridecine]]	7.44
CCOC(=O)[C@@H]1C[C@@H]1c1nn(C(C)C)c2c1OC[C@@H]1COC[C@H]1Nc1nc(ncc1C(F)(F)F)N2 [Ex-2.47, ethyl (1R,2S)- or ethyl (1S,2R)-2-((10aS,13aS)-3-isopropyl-8-(trifluoromethyl)-3,4,10a,11,13a,14-hexahydro-10H,13H-5,9-(azeno)furo[3,4-k]pyrazolo[4,3-b][1]oxa[4,6,10]triazacyclotridecin-1-yl)cyclopropane-1-carboxylate]	>10.09
Cc1nn(C2CCC2)c2c1OC[C@H]1CN(C3COCC3F)C[C@@H]1Nc1nc(ncc1C(F)(F)F)N2 (mixture of isomers) [Ex-3.1, (10aS,13aR)- and (10aR,13aS)-3-cyclobutyl-12-(4-fluorotetrahydrofuran-3-yl)-1-methyl-8-(trifluoromethyl)-3,4,10a,11,12,13,13a,14-octahydro-10H-5,9-(azeno)pyrazolo[4,3-b]pyrrolo[3,4-k][1]oxa[4,6,10]triazacyclotridecine]	>10.09
Cc1nn(C2CC2)c2c1OC[C@@H]1CC[C@H]1Nc1nc(ncc1Cl)N2 [Ex-2.60, (10aR,12aR)-8-chloro-3-cyclopropyl-1-methyl-3,4,10,10a,11,12,12a,13-octahydro-5,9-(azeno)cyclobuta[k]pyrazolo[4,3-b][1]oxa[4,6,10]triazacyclotridecine]	9.41
Cc1nn(C2CCC2)c2c1OC1COC[C@@H]1CNc1nc(ncc1Cl)N2 (stereo partly drawn) [Ex-2.84, (11aR,14aR)- or (11aS,14aS) 8-chloro-3-cyclobutyl-1-methyl-3,4,10,11,11a,12,14,14a-octahydro-5,9-(azeno)furo[3,4-1]pyrazolo[4,3-b][1]oxa[4,6,10]triazacyclotridecine]	8.77
Cc1nn(C2CCC2)c2c1OC[C@@H]1CC(F)(F)C[C@H]1Nc1nc(ncc1C(F)(F)F)N2 [Ex-4.2, 3-Cyclobutyl-12,12-difluoro-1-methyl-8-(trifluoromethyl)-3,4,10a,11,12,13,13a,14-octahydro-10H-5,9-(azeno)cyclopenta[k]pyrazolo[4,3-b][1]oxa[4,6,10]triazacyclotridecine]	9.51
COC1CCC1n1nc(C)c2c1Nc1ncc(C(F)(F)F)c(n1)NC1COCC1CO2 [Ex-2.40, (10aS,13aS)-3-((1R,2R)-(10aS,13aS)-3-((1S,2R)-(10aS,13aS)-3-((1R,2S)-(10aS,13aS)-3-((1R,2R)-(10aR,13aR)-3-((1S,2R)-(10aR,13aR)-3-((1R,2S)-2-methoxycyclobutyl)-1-methyl-8-(trifluoromethyl)-3,4,10a,11,13a,14-hexahydro-10H,13H-5,9-(azeno)furo[3,4-k]pyrazolo[4,3-b][1]oxa[4,6,10]triazacyclotridecine]	8.96
Cn1nc(C(F)(F)F)c2c1OC[C@@H]1COC[C@H]1Nc1nc(ncc1Cl)N2 [Ex-1.13, (10aS,13aS)-8-chloro-1-methyl-3-(trifluoromethyl)-1,4,10a,11,13a,14-hexahydro-10H,13H-5,9-(azeno)furo[3,4-k]pyrazolo[3,4-b][1]oxa[4,6,10]triazacyclotridecine]	7.99
Cc1cnc2nc1N[C@H](C)CCOc1c(c(C)nn1C(C)(C)CO)N2 [Ex-8.1, (R)-2-methyl-2-(3,8,11-trimethyl-10,11,12,13-tetrahydro-5,9-(azeno)pyrazolo[3,4-b][1]oxa[4,6,10]triazacyclotridecin-1 (4H)-yl)propan-1-ol]	>10.09
Cn1nc(C2CC2)c2c1OCC1CCC1Nc1nc(ncc1C(F)(F)F)N2 [Ex-1.11, (10aR,12aR)- or (10aS,12aS)-3-cyclopropyl-1-methyl-8-(trifluoromethyl)-1,4,10,10a,11,12,- 12a,13-octahydro-5,9-(azeno)cyclobuta[k]pyrazolo[3,4-b][1]oxa[4,6,10]triazacyclotridecine]	>10.09
COc1cccc2c1Nc1ncc(C(F)(F)F)c(n1)N[C@H]1COC[C@@H]1CO2 [Ex-15.1]	>10.09
FC(F)(F)c1cnc2nc1N[C@@H]1COC[C@H]1COc1ncccc1N2 [Ex-15.6, (11aS,14aS)-9-(trifluoromethyl)-11a,12,14a,15-tetrahydro-5H,11H,14H6,10-(azeno)furo[3,4-k]pyrido[2,3-b][1]oxa[4,6,10]triazacyclotridecine]	9.08
Cc1cnc2c(c1)Nc1ncc(C(F)(F)F)c(n1)N[C@@H]1COC[C@H]1CO2 [Ex-15.3, (11aS,14aS)-3-methyl-9-(trifluoromethyl)-11a,12,14a,15-tetrahydro-5H,11H,14H6,10-(azeno)furo[3,4-k]pyrido[2,3-b][1]oxa[4,6,10]triazacyclotridecine]	9.15
